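In this assay, cells in 96-well plates receive the compound at five concentrations for 48 hours. Endpoints are linearly interpolated between the surrounding concentrations. GI50 is the concentration that inhibits growth by half.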 Activity calls are given as the source filed them. Rule as the data show it: active = GI50 up to about 1.1 µM and inactive = higher.
Assays:
Assay in all cases: NCI tumour cell line growth inhibition, 48 h
[1] = test system: 786-0
[2] = test system: A549
[3] = test system: ACHN
[4] = test system: BT-549
[5] = test system: CAKI-1
[6] = test system: CCRF-CEM
[7] = test system: COLO 205
[8] = test system: DU-145
[9] = test system: EKVX
[10] = test system: HCC 2998
[11] = test system: HCT-116
[12] = test system: HCT-15
[13] = test system: HL-60
[14] = test system: HOP-62
[15] = test system: HT-29
[16] = test system: Hs-578T
[17] = test system: IGROV-1
[18] = test system: K562
[19] = test system: KM12
[20] = test system: LOX IMVI
[21] = test system: M14
[22] = test system: MCF7
[23] = test system: MDA-MB-231
[24] = test system: MDA-N
[25] = test system: MOLT-4
[26] = test system: Malme-3M
[27] = test system: NCI-H226
[28] = test system: NCI-H23
[29] = test system: NCI-H460
[30] = test system: NCI-H522
[31] = test system: NCI/ADR-RES
[32] = test system: OVCAR-4
[33] = test system: OVCAR-5
[34] = test system: OVCAR-8
[35] = test system: PC-3
[36] = test system: RPMI-8226
[37] = test system: SF-268
[38] = test system: SF-295
[39] = test system: SF-539
[40] = test system: SK-MEL-28
[41] = test system: SK-MEL-2
[42] = test system: SK-MEL-5
[43] = test system: SK-OV-3
[44] = test system: SN12C
[45] = test system: SNB-19
[46] = test system: SNB-75
[47] = test system: SR
[48] = test system: SW-620
[49] = test system: T47D
[50] = test system: TK-10
[51] = test system: U-251
[52] = test system: UACC-257
[53] = test system: UACC-62
[54] = test system: UO-31
[55] = test system: HOP-92
[56] = test system: MDA-MB-435
[57] = test system: OVCAR-3
[58] = test system: RXF 393

## CC12CCC(=O)[C@@]1(C)CCCC2O (stereo partly specified)
[1]
  GI50: > 100000 nM (inactive)
[2]
  GI50: > 100000 nM (inactive)
[3]
  GI50: > 100000 nM (inactive)
[4]
  GI50: > 100000 nM (inactive)
[5]
  GI50: > 100000 nM (inactive)
[6]
  GI50: > 100000 nM (inactive)
[7]
  GI50: > 100000 nM (inactive)
[8]
  GI50: > 100000 nM (inactive)
[9]
  GI50: > 100000 nM (inactive)
[10]
  GI50: > 100000 nM (inactive)
[11]
  GI50: > 100000 nM (inactive)
[12]
  GI50: > 100000 nM
[13]
  GI50: > 100000 nM (inactive)
[14]
  GI50: > 100000 nM (inactive)
[15]
  GI50: > 100000 nM (inactive)
[16]
  GI50: > 100000 nM (inactive)
[17]
  GI50: > 100000 nM (inactive)
[18]
  GI50: > 100000 nM (inactive)
[19]
  GI50: > 100000 nM (inactive)
[20]
  GI50: > 100000 nM (inactive)
[21]
  GI50: > 100000 nM (inactive)
[22]
  GI50: > 100000 nM (inactive)
[23]
  GI50: > 100000 nM (inactive)
[24]
  GI50: > 100000 nM (inactive)
[25]
  GI50: > 100000 nM (inactive)
[26]
  GI50: > 100000 nM (inactive)
[27]
  GI50: > 100000 nM (inactive)
[28]
  GI50: > 100000 nM (inactive)
[29]
  GI50: > 100000 nM (inactive)
[30]
  GI50: > 100000 nM (inactive)
[31]
  GI50: > 100000 nM (inactive)
[32]
  GI50: > 100000 nM (inactive)
[33]
  GI50: > 100000 nM (inactive)
[34]
  GI50: > 100000 nM (inactive)
[35]
  GI50: > 100000 nM (inactive)
[36]
  GI50: > 100000 nM (inactive)
[37]
  GI50: > 100000 nM (inactive)
[38]
  GI50: > 100000 nM (inactive)
[39]
  GI50: > 100000 nM (inactive)
[40]
  GI50: > 100000 nM (inactive)
[41]
  GI50: > 100000 nM (inactive)
[42]
  GI50: > 100000 nM (inactive)
[43]
  GI50: > 100000 nM (inactive)
[44]
  GI50: > 100000 nM (inactive)
[45]
  GI50: > 100000 nM (inactive)
[46]
  GI50: > 100000 nM (inactive)
[47]
  GI50: > 100000 nM (inactive)
[48]
  GI50: > 100000 nM (inactive)
[49]
  GI50: > 100000 nM (inactive)
[50]
  GI50: > 100000 nM (inactive)
[51]
  GI50: > 100000 nM (inactive)
[52]
  GI50: > 100000 nM (inactive)
[53]
  GI50: > 100000 nM (inactive)
[54]
  GI50: > 100000 nM (inactive)

## O=[N+]([O-])c1cccc2nc3ccccc3c(NCCCCNc3c4ccccc4nc4cccc([N+](=O)[O-])c34)c12
[1]
  GI50: 16.4 nM (active)
[2]
  GI50: 34.7 nM (active)
[3]
  GI50: 17 nM (active)
[4]
  GI50: 242 nM (active)
[5]
  GI50: 26.1 nM (active)
[6]
  GI50: < 16 nM (active)
[7]
  GI50: 19.9 nM (active)
[8]
  GI50: 23.2 nM (active)
[9]
  GI50: 104 nM (active)
[10]
  GI50: 25.4 nM (active)
[11]
  GI50: 14.3 nM (active)
[12]
  GI50: 20.4 nM
[13]
  GI50: < 10 nM (active)
[14]
  GI50: 42 nM (active)
[55]
  GI50: 23.3 nM (active)
[15]
  GI50: < 10 nM (active)
[16]
  GI50: 191 nM (active)
[17]
  GI50: 118 nM (active)
[18]
  GI50: < 21.6 nM (active)
[19]
  GI50: 40.1 nM (active)
[20]
  GI50: 62.1 nM (active)
[21]
  GI50: 38.9 nM (active)
[22]
  GI50: 21.6 nM (active)
[23]
  GI50: 17.8 nM (active)
[56]
  GI50: 48.9 nM (active)
[24]
  GI50: 53.6 nM (active)
[25]
  GI50: < 10.4 nM (active)
[26]
  GI50: 76.6 nM (active)
[27]
  GI50: 144 nM (active)
[28]
  GI50: 22.5 nM (active)
[29]
  GI50: 14.3 nM (active)
[30]
  GI50: 21.4 nM (active)
[31]
  GI50: 248 nM (active)
[57]
  GI50: 39.5 nM (active)
[32]
  GI50: 94.8 nM (active)
[33]
  GI50: 164 nM (active)
[34]
  GI50: < 10 nM (active)
[35]
  GI50: 71.9 nM (active)
[36]
  GI50: 30.1 nM (active)
[58]
  GI50: 18.8 nM (active)
[37]
  GI50: 20.3 nM (active)
[38]
  GI50: 92.7 nM (active)
[39]
  GI50: 24.4 nM (active)
[40]
  GI50: 164 nM (active)
[41]
  GI50: 141 nM (active)
[42]
  GI50: 36.5 nM (active)
[43]
  GI50: 293 nM (active)
[44]
  GI50: 41.4 nM (active)
[45]
  GI50: 30.2 nM (active)
[46]
  GI50: 85.9 nM (active)
[48]
  GI50: < 12.2 nM (active)
[49]
  GI50: 49.1 nM (active)
[50]
  GI50: 21.3 nM (active)
[51]
  GI50: 26.1 nM (active)
[52]
  GI50: 146 nM (active)
[53]
  GI50: 134 nM (active)
[54]
  GI50: 129 nM (active)
